The record followed here is patent US10813936B2, “Crystalline form of (S)-N-(5-((R)-2-(2,5-difluorophenyl)-pyrrolidin-1-YL)-pyrazolo[1,5-A]pyrimidin-3-YL)-3-hydroxypyrrolidine-1-carboxamide hydrogen sulfate” (Array BioPharma, Inc., priority 2014, dated 2020).

Where a name gives a salt, the structure may show the parent alone.

A short description of series [1]: Accelerated stability, 40° C./75% RH, five weeks, LDPE bag. The format is physicochemical. The following applies: for API chemical purity over the course of the stability study: five weeks; for Assay / Chiral Potency / Total Impurities: HPLC. How it is done: Upon removal from the chamber, the samples were physically characterized by appearance, KF, TGA, DSC, XRD and PLM. The samples were also analyzed by HPLC for chromatographic purity, chiral integrity and potency. Where applicable, the data presented in the stability portion also includes the original T=0 data for comparison purposes. The data can be seen in Tables 25-29 and FIGS. 40-44.

A short description of series [2]: Stability on aluminum slide at 40° Celsius/75% RH. The following applies: time: I-HS 10 days, HCl 1 hour, HBr 2 weeks, mesylate overnight. The format is physicochemical.
Series [3] in a line: Dynamic vapor sorption (DVS-1 system). The format is physicochemical. The following applies: for DVS (outcome): form after or during DVS, HCl at 50-60% RH. As for the experimental part:
For the DVS measurement a sample of crystalline form (I—HS) was cycled through changing humidity conditions to determine its hygroscopicity. The sample was analyzed using a Surface Measurement System DVS-1 Dynamic Vapor Sorption System. […] Data was collected in 1 minute intervals. Nitrogen was used as the carrier gas. […] After completion of the sorption cycle, the sample was dried using the same procedure, but all the way down to 0% RH and finally taken back to the starting point of 20% RH. The weight change during the sorption/desorption cycles were plotted, allowing for the hygroscopic nature of the sample to be determined.

Series [4] concerns solid tumors with NTRK-fusions. Nature of the series: Phase 1 study: response (RECIST 1.1) in NTRK-fusion patients. The format is in vivo, human. Particulars: 100 or 150 mg BID. How it is done:
Three of the 23 patients harbored NTRK-fusions and were treated at either 100 or 150 mg BID.

Series [5] deals with undifferentiated sarcoma with LMNA-NTRK1 fusion. Nature of the series: Phase 1 trial case: patient with undifferentiated sarcoma. The format is in vivo, human. The following applies: one patient. The text has this:
The patient started cycle 1 day 1 three days later. The patient was seen weekly for pharmacokinetic and safety analysis.

The subject of series [6] is TPM3-TRKA, pAKT, and pERK1/2. In words: Immunoblot of phosphorylation in KM12 cells. The format is cell-based, human. Particulars: low doses, 2 hours. The text has this: (§1) Briefly, cells were lysed in RIPA buffer with Halt Protease and Phosphatase Inhibitor Cocktail (Thermo Scientific) and diluted in loading buffer (LI-COR Biosciences). The membranes were scanned and analyzed using the Odyssey Imaging System and software (LI-COR). The following antibodies were used from Cell Signaling: pTRK Y490 (rabbit polyclonal, #9141), pERK1/2 XP T202/Y204 (#9101), total ERK1/2, pAKT 5473 (rabbit mAb, #4060), and total AKT mouse clone D3A7 (#2920). TRK (C-14) rabbit polyclonal antibody was purchased from Santa Cruz Biotechnology. GAPDH (MAB374) and pTYR (4G10) are from Millipore.

The subject of series [7] is xenograph (human) tumor derived from CUTO-3F cell line. Nature of the series: Xenograft tumor growth, CUTO-3F. The format is in vivo, mice. The following applies: CUTO-3F xenograft, oral daily 60 mg/kg or 200 mg/kg. An excerpt:
(§2) The three different cancer cell lines, the CUTO-3F cell line, the KM12 cell line, and the MO-91 cell line, each express a different Trk gene fusion. […] Following implantation of one of these three different xenograph (human) tumors in mice, the change in the volume of each tumor was monitored.

In a further series the test system is TRKA-SHC1 complexes. In words: TRK-SHC1 proximity ligation assay in CUTO-3 cells. The format is cell-based, human. The following applies: 100 nM, 2 hours, versus DMSO.
The nature of series [8]: Dynamic vapor sorption (IGAsorp analyzer, 25° C.). The format is physicochemical. As for the experimental part: • 1. The hygroscopicity was studied at 25° C. using an IGAsorp analyzer. • 2. About 15 mg of sample was placed in a tared mesh sample holder at an initial ambient room humidity setting of ˜35%. • 3. A total wet/dry nitrogen flow rate of 250 cc/min is used throughout the study. • 4. […] The maximum time allowed at any one humidity set point was 120 min. The sample was maintained under dry N2 after the cycle was completed. Percent weight gain was calculated based on the dry weight basis. Part One: Physical Characterization of Crystalline Form (I—HS)

The subject of series [9] is xenograph (human) tumor derived from KM12 cell line. Nature of the series: Xenograft tumor growth, KM12. The format is in vivo, mice. Particulars: oral daily 60 mg/kg or 200 mg/kg.
Excerpt: as §2

The test system of series [10] is MPRIP-TRKA oncoprotein and ERK1/2. Nature of the series: Immunoblot of phosphorylation in CUTO-3F cells. The format is cell-based, human. The following applies: low doses, 2 hours.
Excerpt: as §1
(In general: Immunoblotting shows a protein as a band on a membrane.)

Series [11] relates to xenograph (human) tumor derived from MO-91 cell line. In words: Xenograft tumor growth, MO-91. Particulars: MO-91 xenograft, oral daily 60 mg/kg or 200 mg/kg. The format is in vivo, mice.
Excerpt: as §2

Series [12] has as its system TEL-TRKC oncoprotein, pAKT, and pERK1/2. Nature of the series: Immunoblot of phosphorylation in MO-91 cells. The format is cell-based, human. Particulars: low doses, 2 hours.
Excerpt: FIG. 13 is an immunoblot showing that the crystalline form (I—HS)inhibits TEL-TRKC kinase and ERK1/2 and AKT activity in MO-91 cells.
as §1

A short description of series [13]: Phase 1 dose escalation study: safety and pharmacokinetics.
Protocol: Response is measured by RECIST Criteria, version 1.1. Serum is collected for pharmacokinetic analysis on Cycle 1 Day 1 and Day 8. Safety information is collected on all patients and the definition of dose-limiting toxicity applies to adverse events regardless of relationship to investigational product.

Protocol for TRKA-SHC1 complexes: PLAs are unique because they can detect functional signaling complexes between a kinase and one of its adaptors in situ. In this assay, TRKA complexed with its preferred adaptor, SHC1, which binds to Y496 in the TRKA kinase domain, was measured (FIG. 17).
Cells were seeded onto glass coverslips (in a 48 well plate) or chamber slides at 25-75 k cells/well. Cells were treated with the indicated doses and times then fixed for 15 minutes by shaking at room temperature in 4% paraformaldehyde. The cells were rinsed twice in PBS, and then the Duolink® in situ PLA® kit from SigmaAldrich in mouse/rabbit (Red) was used according to the manufacturer's protocol (catalog # DUO92101). The antibody concentrations were optimized using immunofluorescence prior to PLA experiments. […] Additionally, samples were treated with 300 mM glycine for 15 minutes prior to the blocking step, otherwise the assay was performed according to the manufacturer's protocol. The cells were mounted using Prolong® gold anti-fade reagent (with DAPI) and cured overnight prior to imaging. The images were either taken on a Nikon standard inverted fluorescent microscope at 40×, or on the 31 Marianas spinning disc confocal in the University of Colorado Anschutz Medical Campus Advance Light Microscopy Core at 40× or 100×. […]

Regarding `O=C(Nc1cnn2ccc(N3CCC[C@@H]3c3cc(F)ccc3F)nc12)N1CC[C@H](O)C1.O=S(=O)(O)O` [AM(HS)1, (S)—N-(5-((R)-2-(2,5-difluorophenyl)-pyrrolidin-1-yl)-pyrazolo[1,5-a]pyrimidin-3-yl)-3-hydroxypyrrolidine-1-carboxamide hydrogen sulfate], in [1] (40 C/75% RH, 5 wks.), the “Peak Area Percent, RRT 0.793” value is reported as 0.00 Peak Area Percent; the “Peak Area Percent, RRT 0.863” value amounted to 1.04 Peak Area Percent; the “Peak Area Percent, RRT 0.981” value is 0.12 Peak Area Percent; the “Peak Area Percent, RRT 1.000” value is 98.83 Peak Area Percent. Also, the “Peak Area Percent, RRT 1.535” value in [1] (40 C/75% RH, 5 wks.) is on record as 0.00 Peak Area Percent. Moreover, in series [1] (40° C./75% RH, 5 wks.), the KF was determined as 0.56 w/w %, the Assay came out at 80.3%, the “Chiral Potency” value is listed as 99.6% and the “Total Impurities” value worked out at 1.16%. Also, the “API chemical purity over the course of the stability study” value in series [1] (40° C./75% RH) was “did not change significantly”. Moreover, in [1] (time point 0 wks.), the Assay was 79.5%, the “Chiral Potency” value stood at 99.6%, the “Total Impurities” value worked out at 1.10% and the Appearance entry is reported as “Yellow Powder free”. For the same molecule, in series [1] (time point 0 wks.), the KF stood at 2.00 w/w %; the “Peak Area Percent, RRT 0.793” value came to 0.00 Peak Area Percent; the “Peak Area Percent, RRT 0.863” value worked out at 0.98 Peak Area Percent; the “Peak Area Percent, RRT 0.981” value is listed as 0.12 Peak Area Percent. Besides, in series [1] (time point 0 wks.), the “Peak Area Percent, RRT 1.000” value is 98.89 Peak Area Percent and the “Peak Area Percent, RRT 1.535” value turned out to be 0.00 Peak Area Percent.

Take `O=C(Nc1cnn2ccc(N3CCC[C@@H]3c3cc(F)ccc3F)nc12)N1CC[C@H](O)C1.O=S(=O)(O)O` [AM(HS), (S)—N-(5-((R)-2-(2,5-difluorophenyl)-pyrrolidin-1-yl)-pyrazolo[1,5-a]pyrimidin-3-yl)-3-hydroxypyrrolidine-1-carboxamide hydrogen sulfate]: the “behaviour when exposed to humidity” value in [1] is “deliquesced”.

Take `Br.O=C(Nc1cnn2ccc(N3CCC[C@@H]3c3cc(F)ccc3F)nc12)N1CC[C@H](O)C1` [HBr, (S)—N-(5-((R)-2-(2,5-difluorophenyl)pyrrolidin-1-yl)pyrazolo[1,5-a]pyrimidin-3-yl)-3-hydroxypyrrolidine-1-carboxamide hydrobromide]: the “Stability at 40° Celsius/75% RH (aluminum slide)” value (“Stability at 40° Celsius/75% RH” below) in [2] is reported as “amorphous”. Besides, the “DVS (outcome)” value in series [3] is “(deliquesced)”.

Take `Cl.O=C(Nc1cnn2ccc(N3CCC[C@@H]3c3cc(F)ccc3F)nc12)N1CC[C@H](O)C1` [HCl, (S)—N-(5-((R)-2-(2,5-difluorophenyl)pyrrolidin-1-yl)pyrazolo[1,5-a]pyrimidin-3-yl)-3-hydroxypyrrolidine-1-carboxamide hydrochloride]: the “Stability at 40° Celsius/75% RH” value in series [2] was “form change”. For the same molecule, the “DVS (outcome)” value in series [3] is listed as “form change”.

Take `CS(=O)(=O)O.O=C(Nc1cnn2ccc(N3CCC[C@@H]3c3cc(F)ccc3F)nc12)N1CC[C@H](O)C1` [Mesylate, (S)—N-(5-((R)-2-(2,5-difluorophenyl)pyrrolidin-1-yl)pyrazolo[1,5-a]pyrimidin-3-yl)-3-hydroxypyrrolidine-1-carboxamide methanesulfonate]: the “Stability at 40° Celsius/75% RH” value in series [2] is “Deliquesced”. Besides, the “DVS (outcome)” value in series [3] is “(crystalline)”.

Consider `O=C(Nc1cnn2ccc(N3CCC[C@@H]3c3cc(F)ccc3F)nc12)N1CC[C@H](O)C1` [crystalline form (I—HS), (S)—N-(5-((R)-2-(2,5-difluorophenyl)-pyrrolidin-1-yl)-pyrazolo[1,5-a]pyrimidin-3-yl)-3-hydroxypyrrolidine-1-carboxamide hydrogen sulfate], for which the “response of the three NTRK-fusion patients” value in series [4] is “partial response”. Further, the “Stability at 40° Celsius/75% RH” value in series [2] is recorded as “No form change”. Moreover, the “response by RECIST 1.1” value in series [5] (100 mg twice daily, CT prior to cycle 2 and cycle 3) was “partial response”. Further, the drug-related adverse events entry in [5] (4-week period of cycle 1) was “No drug-related adverse events”. Further, in series [5] (after four months of dosing), the “adverse events attributed to the drug” value is given as “did not have any adverse events”. Also, in series [5] (on room air, after treatment (baseline 90% with 5 L oxygen)), the oxygen saturation is 97%. The CA125 levels result in [5] (over cycle 1) was “normalized”. The “inhibition of phosphorylation of TPM3-TRKA, pAKT, and pERK1/2” value in [6] is “inhibition”. In addition, the “growth of xenograft tumor” value in series [7] was “effectively halt the growth, or decrease the rate of growth”. In addition, the “effect on TRKA-SHC1 complexes (PLA)” value in the series on TRKA-SHC1 complexes is “disruption of TRKA-SHC1 complexes”. The “hygroscopicity (DVS)” value in [8] was “not hygroscopic”. In addition, the “growth of xenograft tumor” value in series [9] is on record as “effectively halt the growth, or decrease the rate of growth”. Besides, in series [10], the “inhibition of phosphorylation of the MPRIP-TRKA oncoprotein and ERK1/2” value is reported as “inhibition”. Besides, in series [3], the “hygroscopicity (DVS)” value is “non-hygroscopic” and the “DVS (outcome)” value was “RH No change”. Also, the “increase in mass during the sorption cycle” value in series [3] (between 0% and 90% RH) is reported as “about 1.7%”. Moreover, the “growth of xenograft tumor” value in [11] is reported as “effectively halt the growth, or decrease the rate of growth”. For the same molecule, in [1] (40 C/75% RH, 5 wks.), the “Peak Area Percent, RRT 0.793” value amounted to 0.07 Peak Area Percent; the “Peak Area Percent, RRT 0.863” value is given as 0.00 Peak Area Percent; the “Peak Area Percent, RRT 0.981” value was found to be 0.00 Peak Area Percent; the “Peak Area Percent, RRT 1.000” value was determined as 99.93 Peak Area Percent. In addition, the “Peak Area Percent, RRT 1.535” value in [1] (40 C/75% RH, 5 wks.) came out at 0.00 Peak Area Percent. In [1] (40° C./75% RH, 5 wks.), the Appearance entry is reported as “Orange Powder free”, the KF is 0.21 w/w %, the Assay is 79.6% and the “Chiral Potency” value came out at 99.6%. For the same molecule, the “Total Impurities” value in series [1] (40° C./75% RH, 5 wks.) was found to be 0.07%. Further, the “API chemical purity over the course of the stability study” value in [1] (40° C./75% RH) is recorded as “did not change significantly”. Besides, in [1] (time point 0 wks.), the Assay came to 79.4%, the “Chiral Potency” value is 99.6%, the “Total Impurities” value was determined as 0.14% and the Appearance result is “Orange Powder free”. Also, in series [1] (time point 0 wks.), the KF was found to be 0.28 w/w %; the “Peak Area Percent, RRT 0.793” value is given as 0.07 Peak Area Percent; the “Peak Area Percent, RRT 0.863” value was 0.00 Peak Area Percent; the “Peak Area Percent, RRT 0.981” value amounted to 0.00 Peak Area Percent. Besides, in series [1] (time point 0 wks.), the “Peak Area Percent, RRT 1.000” value is on record as 99.86 Peak Area Percent and the “Peak Area Percent, RRT 1.535” value stood at 0.07 Peak Area Percent. Further, the “inhibition of phosphorylation of the TEL-TRKC oncoprotein, pAKT, and pERK1/2” value in series [12] is on record as “inhibition”. For the same molecule, in series [13] (23 patients), the “adverse event: Grade 1 and 2 anemia” value amounted to 22%; the “adverse event: Grade 1 and 2 dizziness” value was found to be 26%; the “adverse event: Grade 1 and 2 fatigue” value is recorded as 35%. Further, in [13] (elevated AST grade 3 (150 mg BID), delirium grade 3 unrelated (100 mg BID)), the “patients with dose limiting toxicities” value is on record as “Two”.
